# Where two headings read alike, the source gives them in different places.
# Experiments:
# [1] = system: L1210 leukemia; assay: Test 16: structure-activity of R'1 substitution, L1210 (Table XII); type: in vivo, mouse (C57B16xDBA/2)F1; design: MST: unit not given here
# Protocol: Test 16: Relationship between structure and activity of various dipyrido indoles differing by the R'1 substitution.
# L1210 leukemia has been maintained by weekly passages on (C57B16xDBA/2)F1 mice. On day 0, mice were inoculated by I.P. route with various numbers of L1210 ascitic tumor cells in volumes of 0.1 ml. Subsequently as indicated, drugs were administrated in Ca^++ and Mg^++ free PBS solutions (Gibco) or in Mac Coy's medium (Gibso or Microbiological Associates). […]
# [2] = system: tumoral strain derived from the murine leukemia due to the C. FRIEND virus; assay: Test 7: antitumoral activity in vitro on Friend leukemia tumoral strain; type: cell-based; settings: HUM = 1
# Protocol: Test 7: Study of the antitumoral activity in vitro
# This activity was measured on a tumoral strain derived from the murine leukemia due to the C. FRIEND virus.
# The tumoral cells multiply in suspension in a "RPMI 1640" medium (Catalogue of GIBCO Bio-cult. Ltd. Washington Road, Sandyford Industrial Estate, PAISLEY PA 3 4EP, Renfrewshire, Scotland) supplemented with 20% of embryonary calf serum, penicillin and streptomycine. The duplication time of these cells is 11 hours. The growth fraction is equal to 1 or very close to 1 (all the cells are in the cycle). The cultures are sub-culturedat time t=0 at the concentration of 2.10^5 cells per ml in Falcon dishes containing 4 ml of medium. After twenty four hours, the product to be tested was added, i.e. at a moment when the cultures are in exponential phase of growth. Twenty four hours after the addition of the product, the cells are counted and the percentage of living cells determined by an exclusion test using "trypan" blue.
# [3] = system: new-born mice; assay: Test 4: toxicity on new-born mice, IP; type: in vivo, mouse
# From the text: (§1) Test 4: Investigation of the toxicity
# (§2) The toxic dose has been sought, on adult ([…]×DBA/2) Fl mice and on new-born mice, of the compounds of the invention by injection by the IP route. The results obtained are given hereinafter:
# (§3) 2-On new-born mice (IP route)
# [4] = Test 4: toxicity on new-born mice, IP; type: in vivo, mouse; settings: mouse, in vivo, read-out: dead mice (converted)
# From the text: as §1, §2, §3
# [5] = system: L 1210 leukemia; assay: Test 1: antitumoral properties on L 1210 leukemia (Table I); type: in vivo, mouse; settings: 0.1 mg/mouse (5 mg/kg), J+1
# Protocol: The lower animal antitumoral properties of the compounds according to the invention have been determined by their curative action on inoculated test L-1210 leukemia. [ZUBROD C. G., Proc. Nat. Acad. Sci. 1972, 69, 1042-1047 and SCHEPARTZ SA. SCREENING, 1971, CANCER Chemother. Rep. Part 3 vol.2 p.3].
# This leukemia is maintained in ascitic form by passage (i.p. route) on CBDl (C57 B16×DBA/2)F1 mice. The preparation to be tested are injected by the intraperitoneal route at least one day after the inoculation of the cells (one injection only). The results are expressed in increased life span per cent (ILS %) according to KESSEL et al. Cancer Res. 1971, 31, 1883-1887) or in percentage of the number of cells killed by the product (the survival of the animals is proportional to the number of cells injected).
# The following tests were made in groups of 10 mice, unless stipulated to the contrary.
# Test 1: Study of the antitumoral properties of the compounds of the invention on L 1210 leukemia
# The lower animal antitumoral properties of the compounds according to the invention were determined by their curative action on test inoculated L 1210 leukemia.
# This leukemia was maintained on CBD 1 (C 57 B 16×DBA/2) F1 mice. The compounds to be tested were injected by the IP route one or more days after the inoculation of the cells (single injection). The results obtained, shown in table I hereinafter, are expressed in percentage of increase of life span (ILS %) and in percentage of the number of cells killed by the compound to be tested, the survival of the animals being proportional to the number of cells injected.
# The percentage of the like span ILS % (Cancer. Res. 1971, 31, 1883-1887) is the following ratio: [formula] S^t =survival of the treated animals S^c =survival of the control animals
# [6] = system: Moloney virus / viro-induced Moloney sarcoma; assay: Test 3: development of the viro-induced Moloney sarcoma; type: in vivo, new-born mice; settings: J+1
# From the text: The study of the development of the MOLONEY viro-induced sarcoma (Nat. Cancer. Inst. Monograph 22, 139-142, 1966) has also made it possible to determine that the compounds according to the invention are antiviral and antitumoral agents in lower animals.
# Test 3: Study of the development of the viro-induced Moloney sarcoma
# The injection of Moloney virus [C. Jasmin et al. J. Nat. Cander Inst. 1974 53 469-474] by the intramuscular i.m. route into new-born mice led after 10 days to the formation of a sarcoma. The appearance of the tumour was proportional to the dose of virus injected. The viral inoculum was constituted by a tumor homogenate diluted to 1/250, this corresponding to 10 TID 50, i.e. to the dose of virus inducing the appearance of a tumour in 50% of the animals infected. At this dose, 80 to 100% of the animals developed a tumour, and 100% of the survivors became leukemic. The experiment thus consisted in noting the number of mice presenting tumours, the regression, or not, of these tumours and finally in sacrificing the surviving animals after 2 months and in noting the presence or absence of splenomegaly (evidence of a leukemia). The virus was inoculated into new-born mice of 3 to 5 days by the IM route, and the mice received the following day (J+1) or five hours after injection (JO+5 hours) the product to be tested by the IP route.
# [7] = 10^4 cells, 5 mg/kg, day +1, control MST 11.8
smiles,measurement,setting,value
"Cc1c2cc[n+](C)cc2c(C)c2c1[nH]c1cc[n+](C)cc12 [Example 2, 2,5,9,11-tetramethyl dipyrido [4,3-b][3,4-f] indolinium diacetate]",60 days surv.,"[1]; 10^4 cells, 20 mg/kg, day +4",0
same,ILS %,"[1]; 10^4 cells, 20 mg/kg, day +4",0.9%
same,MST,"[1]; 10^4 cells, 20 mg/kg, day +4",11.3
same,Range of death,"[1]; 10^4 cells, 20 mg/kg, day +4",10-17
same,Activity (ratio of the LD50 of HUM to the LD50 of the product tested),[2],0.2
"Cc1c2cc[n+](C)cc2c(C)c2c1[nH]c1ccc(O)cc12 [HUM, 2N--methyl-9-hydroxy-ellipticinium acetate, reference compound]",appearance of mice,[3]; 5 μg: 2.5 mg/kg,mice puny in appearance
same,appearance of mice,[3]; 10 μg: 5 mg/kg,mice puny in appearance
same,mortality,[4]; 5 μg: 2.5 mg/kg,37.5%
same,mortality,[4]; 10 μg: 5 mg/kg,37.5%
same,ILS %,[5]; 10^3 cells,22.15%
same,Number of cells found,[5]; 10^3 cells,60
same,Number of cells killed,[5]; 10^3 cells,94%
same,Surviving mice,[5]; 10^3 cells,3/10
same,ILS %,"[5]; 10^4 cells, IP",22.6%
same,Number of cells found,[5]; 10^4 cells,400
same,Number of cells killed,[5]; 10^4 cells,96%
same,Surviving mice,[5]; 10^4 cells,1/10
same,animals survived,[6]; 1 μg/mouse (0.5 mg/kg),90%
same,mice presenting tumours,[6]; 1 μg/mouse (0.5 mg/kg),30%
same,mice with leukemia,[6]; 1 μg/mouse (0.5 mg/kg),33%
same,tumours regressed,[6]; 1 μg/mouse (0.5 mg/kg),90%
same,animals presenting a tumour,[6]; 5 μg/mouse (2.5 mg/kg),20%
same,mice leukemic,[6]; 5 μg/mouse (2.5 mg/kg),10%
same,tumour regression,[6]; 5 μg/mouse (2.5 mg/kg),100%
same,60 days surv.,"[1]; 10^3 cells, 5 mg/kg, day +1",3
same,ILS %,"[1]; 10^3 cells, 5 mg/kg, day +1",22.15%
same,MST,"[1]; 10^3 cells, 5 mg/kg, day +1",16.86
same,Range of death,"[1]; 10^3 cells, 5 mg/kg, day +1",14-20
same,ILS %,[1]; [7],22.6%
same,MST,[1]; [7],14.9
same,Range of death,[1]; [7],14-20
